Measurements: paper PMC5529658, “Antiproliferative and Antibacterial Activities of Cirsium scabrum from Tunisia” (Evidence-based Complementary and Alternative Medicine : eCAM, 2017)

Columns and labels:
[1] = test system: several cultured human cancer cell lines; details: cited from earlier work
[2] = test system: Staphylococcus epidermidis T151; assay: Antimicrobial assay (MIC, agar dilution); format: cell-based
Method: (§1) The antimicrobial activity of crude extract and partitions was evaluated against 36 pathogenic microorganisms (22 Gram-positive bacteria, 13 Gram-negative bacteria, and 1 yeast) according to Mahamodo et al.. The 36 microorganisms were grown overnight at 37°C on sloping Mueller-Hinton (MH) agar medium. Briefly, the bacteria were diluted with Ringer's Cysteine (RC) solution to obtain 10^6 bacteria/ml. […] Inocula of 10^4 colony forming units (CFU) were spotted ultimately with a multipoint inoculator (Steers Replicator).

[3] = test system: Staphylococcus aureus 8148; assay: Antimicrobial assay (MIC, agar dilution); format: cell-based
Method: as §1

[4] = test system: Escherichia coli T20A2; assay: Antimicrobial assay (MIC, agar dilution); format: cell-based
Method: as §1

[5] = test system: Enterococcus faecalis T47A16; assay: Antimicrobial assay (MIC, agar dilution); format: cell-based
Method: as §1

[6] = test system: Staphylococcus capitis T21A3; assay: Antimicrobial assay (MIC, agar dilution); format: cell-based
Method: as §1

[7] = test system: Staphylococcus aureus T11; assay: Antimicrobial assay (MIC, agar dilution); format: cell-based
Method: as §1

[8] = test system: Enterococcus faecalis T37B1; assay: Antimicrobial assay (MIC, agar dilution); format: cell-based
Method: as §1

[9] = test system: Staphylococcus aureus T2510; assay: Antimicrobial assay (MIC, agar dilution); format: cell-based
Method: as §1

[10] = test system: Corynebacterium striatum T46C1; assay: Antimicrobial assay (MIC, agar dilution); format: cell-based
Method: as §1

[11] = test system: Staphylococcus lugdunensis T36A1; assay: Antimicrobial assay (MIC, agar dilution); format: cell-based
Method: as §1

[12] = test system: Staphylococcus epidermidis T19A1; assay: Antimicrobial assay (MIC, agar dilution); format: cell-based
Method: as §1

[13] = test system: Staphylococcus capitis T29A2; assay: Antimicrobial assay (MIC, agar dilution); format: cell-based
Method: as §1

[14] = test system: Staphylococcus lugdunensis T47B2; assay: Antimicrobial assay (MIC, agar dilution); format: cell-based
Method: as §1

[15] = test system: Staphylococcus pettenkoferi T33; assay: Antimicrobial assay (MIC, agar dilution); format: cell-based
Method: as §1

[16] = test system: Staphylococcus aureus T306; assay: Antimicrobial assay (MIC, agar dilution); format: cell-based
Method: as §1

[17] = test system: Staphylococcus aureus 8143; assay: Antimicrobial assay (MIC, agar dilution); format: cell-based
Method: as §1

[18] = test system: Dermabacter hominis T47A7; assay: Antimicrobial assay (MIC, agar dilution); format: cell-based
Method: as §1

[19] = test system: Staphylococcus aureus T61; assay: Antimicrobial assay (MIC, agar dilution); format: cell-based
Method: as §1

[20] = test system: Pseudomonas aeruginosa ATCC9027; assay: Antimicrobial assay (MIC, agar dilution); format: cell-based
Method: as §1

[21] = test system: Staphylococcus saprophyticus 8237; assay: Antimicrobial assay (MIC, agar dilution); format: cell-based
Method: as §1

[22] = test system: Staphylococcus aureus T26A4; assay: Antimicrobial assay (MIC, agar dilution); format: cell-based
Method: as §1

[23] = test system: Staphylococcus pettenkoferi T282; assay: Antimicrobial assay (MIC, agar dilution); format: cell-based
Method: as §1

[24] = test system: Staphylococcus aureus T21; assay: Antimicrobial assay (MIC, agar dilution); format: cell-based
Method: as §1

[25] = test system: Dermabacter hominis T49B5; assay: Antimicrobial assay (MIC, agar dilution); format: cell-based
Method: as §1

[26] = test system: Staphylococcus aureus T281; assay: Antimicrobial assay (MIC, agar dilution); format: cell-based
Method: as §1

[27] = test system: Pseudomonas aeruginosa T41; assay: Antimicrobial assay (MIC, agar dilution); format: cell-based
Method: as §1

[28] = test system: Staphylococcus aureus 8142; assay: Antimicrobial assay (MIC, agar dilution); format: cell-based
Method: as §1

[29] = test system: Corynebacterium striatum T40A3; assay: Antimicrobial assay (MIC, agar dilution); format: cell-based
Method: as §1

[30] = test system: Streptococcus agalactiae T53A4; assay: Antimicrobial assay (MIC, agar dilution); format: cell-based; details: vancomycin
Method: as §1

For `C[C@H](C/C=C/C(C)(C)OO)[C@H]1CC[C@@]2(C)[C@@H]3CC[C@H]4C(C)(C)[C@@H](O)CC[C@@]45C[C@@]35CC[C@]12C` [Compound 3a, 25-hydroperoxycycloart-23-en-3β-ol], the “cytotoxic activity” value [1] is listed as “significant cytotoxic activity”.

In the case of `C=C(C)C(CC[C@@H](C)[C@H]1CC[C@@]2(C)[C@@H]3CC[C@H]4C(C)(C)[C@@H](O)CC[C@@]45C[C@@]35CC[C@]12C)OO` (stereo partly drawn) [Compound 3b, 24-hydroperoxycycloart-25-en-3β-ol], the “cytotoxic activity” value [1] is given as “significant cytotoxic activity”.

For `CNC(C)C1CCC(N)C(OC2C(N)CC(N)C(OC3OCC(C)(O)C(NC)C3O)C2O)O1` (centres unmarked) [Gent, gentamicin], the “Reference antibiotics MIC values” ([2]; gentamicin) was “R (R: >8)”, the “Reference antibiotics MIC values” ([3]; gentamicin) was “S (Gent (gentamicin), S: ≤4)” and the “Reference antibiotics MIC values” ([4]; gentamicin) was “R (R: >8)”. The “Reference antibiotics MIC values” ([5]; gentamicin) was “S (Gent (gentamicin), S: ≤4)”, the “Reference antibiotics MIC values” ([6]; gentamicin) was “S (Gent (gentamicin), S: ≤4)” and the “Reference antibiotics MIC values” ([7]; gentamicin) was “S (Gent (gentamicin), S: ≤4)”. For the same compound, the “Reference antibiotics MIC values” ([8]; gentamicin) was “S (Gent (gentamicin), S: ≤4)”, the “Reference antibiotics MIC values” ([9]; gentamicin) was “S (Gent (gentamicin), S: ≤4)” and the “Reference antibiotics MIC values” ([10]; gentamicin) was “S (Gent (gentamicin), S: ≤4)”. The “Reference antibiotics MIC values” ([11]; gentamicin) was “S (Gent (gentamicin), S: ≤4)”, the “Reference antibiotics MIC values” ([12]; gentamicin) was “S (Gent (gentamicin), S: ≤4)” and the “Reference antibiotics MIC values” ([13]; gentamicin) was “S (Gent (gentamicin), S: ≤4)”. For the same compound, the “Reference antibiotics MIC values” ([14]; gentamicin) was “S (Gent (gentamicin), S: ≤4)”, the “Reference antibiotics MIC values” ([15]; gentamicin) was “S (Gent (gentamicin), S: ≤4)” and the “Reference antibiotics MIC values” ([16]; gentamicin) was “S (Gent (gentamicin), S: ≤4)”. The “Reference antibiotics MIC values” ([17]; gentamicin) was “S (Gent (gentamicin), S: ≤4)”, the “Reference antibiotics MIC values” ([18]; gentamicin) was “S (Gent (gentamicin), S: ≤4)” and the “Reference antibiotics MIC values” ([19]; gentamicin) was “S (Gent (gentamicin), S: ≤4)”. The “Reference antibiotics MIC values” ([20]; gentamicin) was “S (Gent (gentamicin), S: ≤4)”, the “Reference antibiotics MIC values” ([21]; gentamicin) was “S (Gent (gentamicin), S: ≤4)” and the “Reference antibiotics MIC values” ([22]; gentamicin) was “S (Gent (gentamicin), S: ≤4)”. For the same compound, the “Reference antibiotics MIC values” ([23]; gentamicin) was “S (Gent (gentamicin), S: ≤4)”, the “Reference antibiotics MIC values” ([24]; gentamicin) was “S (Gent (gentamicin), S: ≤4)” and the “Reference antibiotics MIC values” ([25]; gentamicin) was “S (Gent (gentamicin), S: ≤4)”. For the same compound, the “Reference antibiotics MIC values” ([26]; gentamicin) was “S (Gent (gentamicin), S: ≤4)”, the “Reference antibiotics MIC values” ([27]; gentamicin) was “S (Gent (gentamicin), S: ≤4)” and the “Reference antibiotics MIC values” ([28]; gentamicin) was “S (Gent (gentamicin), S: ≤4)”. For the same compound, the “Reference antibiotics MIC values” ([29]; gentamicin) was “R (R: >8)”.

For `CN[C@H](CC(C)C)C(=O)N[C@H]1C(=O)N[C@@H](CC(N)=O)C(=O)N[C@H]2C(=O)N[C@H]3C(=O)N[C@H](C(=O)N[C@H](C(=O)O)c4cc(O)cc(O)c4-c4cc3ccc4O)[C@H](O)c3ccc(c(Cl)c3)Oc3cc2cc(c3O[C@@H]2O[C@H](CO)[C@@H](O)[C@H](O)[C@H]2O[C@H]2C[C@](C)(N)[C@H](O)[C@H](C)O2)Oc2ccc(cc2Cl)[C@H]1O` [Vanc, vancomycin], the “Reference antibiotics MIC values” [30] was “R (R: >16)”, the “Reference antibiotics MIC values” ([2]; vancomycin) was “S (Vanc (vancomycin), S: ≤4)” and the “Reference antibiotics MIC values” ([3]; vancomycin) was “S (Vanc (vancomycin), S: ≤4)”. For the same compound, the “Reference antibiotics MIC values” ([4]; vancomycin) was “R (R: >16)”, the “Reference antibiotics MIC values” ([5]; vancomycin) was “S (Vanc (vancomycin), S: ≤4)” and the “Reference antibiotics MIC values” ([6]; vancomycin) was “S (Vanc (vancomycin), S: ≤4)”. For the same compound, the “Reference antibiotics MIC values” ([7]; vancomycin) was “S (Vanc (vancomycin), S: ≤4)”, the “Reference antibiotics MIC values” ([8]; vancomycin) was “S (Vanc (vancomycin), S: ≤4)” and the “Reference antibiotics MIC values” ([9]; vancomycin) was “S (Vanc (vancomycin), S: ≤4)”. For the same compound, the “Reference antibiotics MIC values” ([10]; vancomycin) was “S (Vanc (vancomycin), S: ≤4)”, the “Reference antibiotics MIC values” ([11]; vancomycin) was “S (Vanc (vancomycin), S: ≤4)” and the “Reference antibiotics MIC values” ([12]; vancomycin) was “R (R: >16)”. The “Reference antibiotics MIC values” ([13]; vancomycin) was “S (Vanc (vancomycin), S: ≤4)”, the “Reference antibiotics MIC values” ([14]; vancomycin) was “S (Vanc (vancomycin), S: ≤4)” and the “Reference antibiotics MIC values” ([15]; vancomycin) was “S (Vanc (vancomycin), S: ≤4)”. For the same compound, the “Reference antibiotics MIC values” ([16]; vancomycin) was “S (Vanc (vancomycin), S: ≤4)”, the “Reference antibiotics MIC values” ([17]; vancomycin) was “S (Vanc (vancomycin), S: ≤4)” and the “Reference antibiotics MIC values” ([18]; vancomycin) was “S (Vanc (vancomycin), S: ≤4)”. The “Reference antibiotics MIC values” ([19]; vancomycin) was “S (Vanc (vancomycin), S: ≤4)”, the “Reference antibiotics MIC values” ([20]; vancomycin) was “R (R: >16)” and the “Reference antibiotics MIC values” ([21]; vancomycin) was “S (Vanc (vancomycin), S: ≤4)”. For the same compound, the “Reference antibiotics MIC values” ([22]; vancomycin) was “S (Vanc (vancomycin), S: ≤4)”, the “Reference antibiotics MIC values” ([23]; vancomycin) was “S (Vanc (vancomycin), S: ≤4)” and the “Reference antibiotics MIC values” ([24]; vancomycin) was “S (Vanc (vancomycin), S: ≤4)”. For the same compound, the “Reference antibiotics MIC values” ([25]; vancomycin) was “S (Vanc (vancomycin), S: ≤4)”, the “Reference antibiotics MIC values” ([26]; vancomycin) was “S (Vanc (vancomycin), S: ≤4)” and the “Reference antibiotics MIC values” ([27]; vancomycin) was “R (R: >16)”. For the same compound, the “Reference antibiotics MIC values” ([28]; vancomycin) was “S (Vanc (vancomycin), S: ≤4)” and the “Reference antibiotics MIC values” ([29]; vancomycin) was “S (Vanc (vancomycin), S: ≤4)”.
